Data set [1] concerns acute promyelocytic leukemia. As to conditions: one PML-RAR patient with multiple relapses after retinoic acid (Warrell et al., 1998); cited from earlier work.
Data set [2] relates to inflammatory cytokines. Put plainly: Semiquantitative RT-PCR of cytokine mRNA, PMA/Ion stimulated peripheral blood lymphocytes. The class given is cell-based, human. As to conditions: for cytokine expression (mRNA): PMA/Ion stimulation, FIG. 13 A and B. As to the method:
(§1) Monocyte and macrophage depleted peripheral blood mononuclear cells were obtained from consenting adults via separation using Ficoll-Hypaque. The peripheral blood mononuclear cells (PBMC) fraction was washed and seeded in 9 cm petri dishes. After an incubation of 2 hours at 37° C. to remove most of the monocytes, macrophages, and B-cells, the non-adherent cells were collected and cultured in 175 cm^2 flasks for 2 days. Cells were harvested and adjusted to 3 million cells per ml. Aliquots of 500 μl were transferred to each well of 24-well flat bottom plates. Peripheral blood lymphocytes (PBL's) were treated with various concentrations of HDAC inhibitors as indicated. After a 2 hours incubation time at 37° C. cells were stimulated with phorbol 12-myristate 13-acetate (PMA)/ionomycin (Ion) or activated via T cell receptor (TCR/CD3) complex with 10 μg/ml anti-CD3 mAb (OKT3) and 2.5 μg/ml anti-CD28 mAb. After 24 hours at 37° C. the supernatant was removed and frozen for cytokine assays. Cell pellets were lysed and total RNA was isolated using the RNeasy mini kit from Qiagen.
(§2) One microgram of total RNA was transcribed to cDNA by standard methods using reverse transcriptase and an oligo-dT primer (Invitrogen). For semiquantitative PCR, 2 μl of cDNA was amplified by PCR using specific primers. Primers for PCR were synthesized by MWG and are as follows: […]

For data set [3], the system named is stage III/IV non-small cell lung cancer. As to conditions: monotherapy, phase II (Keer et al., 2002); cited from earlier work.
The next data set relates to PPARδ. As to conditions: cited from earlier work.
Another data set has as its system F9 cells. As to conditions: cited from earlier work.
The test system of data set [4] is inflammatory cytokines. Put plainly: Semiquantitative RT-PCR of cytokine mRNA, LPS stimulated keratinocytes. The class given is cell-based, human. As to conditions: HaCaT, 200 nM TSA or 5 mM VPA 4 hours, then LPS 100 ng/ml 24 hours, FIG. 12A. The procedure:
Human immortalized keratinocytes (HaCaT cells) were seeded at a density of 2.5 million cells per ml into 75 cm^2 flasks. […] After 24 hours at 37° C. cells were lysed and total RNA was isolated using the RNeasy mini kit from Qiagen.
as §2

For data set [5], the system named is Basal Cell Carcinoma. As to conditions: Tazarotene used alone; cited from earlier work.
For data set [6], the system named is HaCaT cells. Put plainly: Apoptosis assay, flow cytometry of Sub-G1 DNA containing cells. It is filed as cell-based, human. As to conditions: drugs day 1, assay day 2, combinations VPA 1 mM + Tazarotene 1 or 2 μM, FIG. 5. As to the method:
Apoptosis assays: Apoptosis was measured by a Beckton Dickinson FACScalibur flow cytometer by analysing the percentage of Sub-G1 DNA containing cells. 10000 events were recorded for each sample. The amplification scale was linear for all parameters. Photomultiplier tension was set as to place the peak DNA content corresponding cells in G0/G1 at channel 300 in the FL2-H vs SCC—H graphs. Cells showing a less than peak DNA content (hypodiploid cells) and high SSC—H (granular high condensed cells) were regarded as apoptotic. The experiments were repeated three times in duplicate. Error bars represent 1 standard deviation.
Cells were plated in 35 mm diameter wells on day 0. Drugs were added on day 1. The apoptosis assay was carried out on day 2. […] Thus, the combinatorial activity of these two drugs must be explained via synergistic activity of this treatment.
On the technique in general: A flow cytometer gives signals particle by particle.

In data set [7] the test system is Basal Cell Carcinoma. Briefly: Topical treatment of BCC patients with Tazarotene and VPA. As to conditions: 4 lesions pre-treated with Tazarotene alone for at least 16-20 weeks. The class given is in vivo, human. The procedure:
10 lesions were treated: 8 Superficial BCCs and 2 pigmented BCC. […] Lesions were evaluated clinically and photographed every two weeks.

The test system of data set [8] is HaCaT cells. Put plainly: MTT assay, growth of human immortalized keratinocytes. The class given is cell-based. The procedure:
MTT assay: This calorimetric assay detects the formation of formazan which is proportional to the number of cells present. Tissue culture medium containing drugs was removed and 200 μl of DME containing 2 mg/ml MTT ((3-4, 5-dimethyl thiazol-2yl) 2,5-diphenyltetrazolium bromide) was added to each well. 96-well plates were incubated at 37 ° C., and 10% CO2 for 30 minutes. Medium containing MTT was then removed and the cells were washed once with PBS. Following removal of the PBS, 200 μL DMSO was added to each well and plates were placed on a rotating platform shaker for 5 minutes. Results were obtained by reading the absorbance at a wavelength of 550 nm using a spectrophotometer. Results are expressed as percentages setting the control as 100%.
FIG. 1 graphically depicts the results of growth assays performed on human immortalized keratinocytes (HaCaT cells), treated for three days with the indicated compounds. Drugs were added on the same day of plating (day 0). The MTT assay (to measure cell proliferation) was carried out on day 3. Various combinations of the drugs were used in the growth assays.
Cells were plated in wells on day 0. […] The MTT assay was carried out on day 3. Various combinations of the drugs were also used in the growth assays. […] Thus, the combinatorial activity of these two drugs must be explained via synergistic activity of this treatment.
Drugs were added on the same day of plating (day 0). The MTT assay (to measure cell proliferation) was carried out on the third day. […] Thus, this combinatorial activity of these two drugs must be explained via synergistic activity of this treatment.
Background: Tetrazolium dyes change colour on reduction, which living cells bring about.

In another data set the test system is IL-2 and TNF-α. Briefly: IL-2 and TNF-α ELISA, supernatants of stimulated peripheral blood lymphocytes. As to conditions: PBLs, FIG. 15; for concentration at which inhibition of IL-2 and TNF-α expression was maximal: CD3/CD28; for IL-2 secretion, dose-response / TNF-α secretion, dose-response: increasing concentrations two hours, CD3 and CD28 mAbs 24 hours. It is filed as cell-based, human. The procedure: as §1
To perform ELISAs, supernatants of treated and untreated PBL's were collected and IL-2 as well as TNF-α were measured using the Duo Set ELISA Development System (R&D Systems) as described by the manufacturer.
On the technique in general: An ELISA detects its analyte on a solid surface through an enzyme-linked reagent.

The subject of a further data set is T-cell lymphomas. As to conditions: phase II trial (Piekarz et al., 2001); cited from earlier work.
Where [9] appears, read: PBLs preincubated 2 hours, PMA/Ion 24 hours, FIGS. 12B, 13.
[10] abbreviates: vs untreated stimulated control.

For the compound phenylbutyrate, in data set [1], the “clinical outcome of leukemia” value is listed as “complete remission of the leukemia”.

For the compound `O=C(CCCCCCC(=O)Nc1ccccc1)NO` [SAHA, suberoylanilide hydroxamic acid], in the data set on inflammatory cytokines [2], the “cytokine expression (mRNA)” value is “can modulate cytokine expression”.

On to `CCCC(=O)OCOC(=O)C(C)(C)C` [Pivanex, Pivaloyloxymethyl butyrate], for which, in [3], the clinical activity entry is listed as “demonstrating activity”.

Regarding `CC(/C=C/C(=O)NO)=C\[C@@H](C)C(=O)c1ccc(N(C)C)cc1` [TSA, trichostatin A], in the data set with PPARδ, the PPARδ activation result is given as “activates”. Further, in the data set with inflammatory cytokines [2] (setting [9]), the “IL-4 mRNA transcripts” value was “significantly reduced” and the “IL-6 mRNA transcripts” value is reported as “only moderate effects”. For the same compound, in the data set with F9 cells, the F9 cell differentiation result is on record as “induces the same type of F9 cell differentiation as VPA”. In the data set with inflammatory cytokines [4], the “IFN-γ mRNA transcript” value is listed as “virtually unaffected”. Besides, in the data set with inflammatory cytokines [4] (setting [10]), the “IL-6 mRNA level” value is on record as “significant decrease” and the “TNF-α mRNA level” value is listed as “significant decrease”.

Turning to `CCOC(=O)c1ccc(C#Cc2ccc3c(c2)C(C)(C)CCS3)nc1` [Tazarotene], in the data set on Basal Cell Carcinoma [5], the “share of BCC's in which regression is induced” value is roughly 50%; the “side effects (such as pain and itching)” value is listed as “several unwanted side effects”; the time to regression is reported as 12-24 weeks. For the same compound, the “apoptosis (Sub-G1 DNA containing cells)” value with HaCaT cells [6] was “induces apoptosis”. Besides, the “tumor diameter under Tazarotene alone” value with Basal Cell Carcinoma [7] is “no reduction of tumor diameter”. In the data set with HaCaT cells [8] (treated three days, MTT on day 3, combinations VPA 1 mM + Tazarotene 1 or 2 μM, FIG. 1), the “cell growth (MTT assay)” value is on record as “inhibited cell growth”.

In the case of `O=C(CCC1CCCCC1)NO` [G2M-702], the “cytokine expression (mRNA)” value in the data set with inflammatory cytokines [2] is given as “can modulate cytokine expression”. In the data set with IL-2 and TNF-α, the “concentration at which inhibition of IL-2 and TNF-α expression was maximal” value (from here on “concentration at which inhibition”) stood at 3 µM; the “IL-2 secretion, dose-response” value is “dose-dependent inhibition”; the “TNF-α secretion, dose-response” value was “dose-dependent inhibition”.

With `O=c1[nH]cc(F)c(=O)[nH]1` [5-FU, 5-Fluorouracil], in the data set with HaCaT cells [8] (MTT on the third day, 5 μM or 10 μM 5-FU and 1 mM VPA, FIG. 3), the “cell growth (MTT assay)” value was “inhibited growth”.

For the compound `C/C=C1\NC(=O)[C@H]2CSSCC/C=C/[C@H](CC(=O)N[C@H](C(C)C)C(=O)N2)OC(=O)[C@H](C(C)C)NC1=O` [depsipeptide], in the data set on T-cell lymphomas, the clinical outcome was “used successfully”.

On to `O=C(CCC1CCCC1)NO` [G2M-701], for which, in the data set on inflammatory cytokines [2], the “cytokine expression (mRNA)” value is given as “can modulate cytokine expression”. In the data set with IL-2 and TNF-α, the “concentration at which inhibition” value worked out at 6 µM; the “IL-2 secretion, dose-response” value was “dose-dependent inhibition”; the “TNF-α secretion, dose-response” value is “dose-dependent inhibition”.

For the compound `O=C(/C=C/C1CCCCC1)NO` [G2M-707], the “cytokine expression (mRNA)” value in the data set with inflammatory cytokines [2] is reported as “can modulate cytokine expression”. In the data set with IL-2 and TNF-α, the “concentration at which inhibition” value is 1 µM; the “IL-2 secretion, dose-response” value is listed as “dose-dependent inhibition”; the “TNF-α secretion, dose-response” value was “dose-dependent inhibition”.
